Laboratory results as given in article PMC9122897, “SHR1032, a novel STING agonist, stimulates anti-tumor immunity and directly induces AML apoptosis” (Scientific Reports, 2022).

Columns and labels:
[1] = system: THP1 reporter cells carrying human STING R232, H232 and HAQ variants; experiment: IRF luciferase reporter assay in THP1 cells with STING variants; format: cell-based; conditions: compared to cGAMP and ADU-S100; 24 h
Text: Five haplotypes of human STING have been identified (R232, H232, HAQ, AQ, and Q alleles), which vary at amino acid positions 71, 230, 232, and 293[16]. R232, HAQ and H232 were reported to be the three major alleles. We tested the responsiveness of the human STING alleles to STING agonists in THP1 reporter cells carrying human STING R232, H232 and HAQ variants. […] To examine whether the activities of STING agonists are on-target, we treated THP1-STING-KO reporter cells with the agonists and no luciferase reporter activity was detected, confirming the cellular activity of STING agonists we observed are specific from STING.
Figure 2 SHR1032 specifically and potently activates STING signaling pathway. […] Cells were stimulated for 24 h with the indicated STING compounds and assessed for luciferase activity. […] IFNβ in media was quantified by human or mouse ELISA kits respectively. […] The amount of pTBK1, total TBK1, STING and α-tubulin was measured by western blotting.
THP1 reporter cells were treated for 24 h with a total of 100 k cells and 150 ul media in each well a 96-well plate. […] Luminescence signal was measured using Tecan infinite M1000. EC50 values were calculated using non-linear regression analysis of GraphPad Prism. Cell growth was monitored by CellTiter-Glo Luminescent Cell Viability Assay (Promega) per manufacture’s protocol. […]

[2] = system: MC38 mouse syngeneic colorectal adenocarcinoma; experiment: MC38 syngeneic tumor model; format: in vivo, C57BL/6 mouse
Experimental: Figure 3 Robust cytokine induction and antitumor effects in vivo. (a,b) C57BL/6 mice were inoculated with mouse MC38 colon cancer cells in the left flank. When tumor volumes were 100 mm^3, they received intratumoral (IT) dose of 100 µg of SHR1032 on day 1, 5, 8 and 12 or IT dose of 50 µg ADU-S100 on day 1, 5, and 8, or vehicle, respectively. (a) Tumor volume was measured at different time points. Results are shown as mean tumor volume ± sem. (n = 8 animals per group). (b) Mouse bodyweight was measured at different time points. (c–f) C57BL/6 mice were inoculated with mouse MC38 colon cancer cells in the left flank. When tumor volumes were 100 mm^3, they received one IT dose of 100 µg of SHR1032 or 50 µg ADU-S100, or vehicle. (c) IFNβ, (d) IL-6 and (e) TNFα from both tumor and plasma was measured by ELISA 4 h after. (f) SHR1032 compound concentration in tumors were measured.
Human and Cynomolgous PBMC’s were thawed and spun down in Lymphocyte media (ZENBIO) and resuspended in media to 1.5 x 10^6 cells/ml density. Mouse RAW 264.7 cells were detached from the flask and resuspended in media to 1.5 x 10^6 cells/ml density. Then, 100 µl of media containing the cells was added to each well of a 96-well plate containing compound in 50 µl of media. Plates were incubated for 5 h at 37 °C and supernatant was collected for ELISA analysis. Human and monkey IFN-β protein concentration was measured using human IFN-β Quantikine ELISA Kits (R&D Systems) per manufacture’s protocol. Mouse IFN-β was measured using mouse IFN-β Quantikine ELISA Kits (R&D Systems) per manufacture’s protocol. Mouse TNFα, IFN-β and IL-6 in the tumor lysates and plasma was measured by Quantikine ELISA Kits (R&D Systems) per manufacture’s protocol.
Female C57BL/6 mice, aged between 8 and 10 weeks old, were purchased from Charles River Lab. MC38 mouse colorectal cancer cells were resuspended as single cell solution in PBS at a concentration of 5 × 10^6 cells/ml. One hundred µl of cell suspension were implanted in the right flank of mice subcutaneously. Tumor size was measured by a caliper in three dimensions and its volume was then calculated according to the following formula: Tumor Volume (mm^3) = l * w * h * 0.5236, where l = length, w = width and h = height in mm for a tumor. When the average tumor volume reached around 100 mm^3, the mice were randomly assigned into three groups (n = 8) and each group of mice received one regimen. This day was assigned as day 0 for the study. […] Tumor volume and body weight were measured 3 times per week throughout the study. […] Cytokines and SHR1032 concentration in the plasma and tumor tissues were analyzed. […]

CCn1nc(C)cc1C(=O)Nc1nc2cc(C(N)=O)cc(OC)c2n1CCC[C@H]1COc2cc(C(N)=O)cc3nc(NC(=O)c4cc(C)nn4CC)n1c23 [SHR1032]
potency in IRF luciferase reporter [1]: much better potency
tumor growth inhibition ([2]; 100 µg intratumorally on day 1, 5, 8 and 12, compared to the control group): 78%
mouse pharmacokinetic properties ([2]; intratumoral, mouse): favorable mouse pharmacokinetic properties
IFNβ, IL-6 and TNFα induction in tumor and plasma ([2]; one IT dose of 100 µg, 4 h post dosing, ELISA): induced all the three cytokines in both tumors and plasma
